{"source": "patent US10226514B2", "about": "“Methods and compositions for reducing blood glucose levels” (The Children's Medical Center Corporation, priority 2011, dated 2019)", "key": {"XBP1s [1]": {"test_system": "XBP1s", "test": "XBP1s levels in Ad-XBP1s-infected Fao cells", "assay_type": "cell-based", "settings": "Ad-XBP1s-infected Fao cells (rat hepatoma)", "method": "MEF cells were from American Type Tissue Collection (ATCC). These cells were grown in Dulbecco's Modified Eagel Medium (DMEM) supplemented with 10% fetal bovine serum (FBS), 10 U/ml penicillin and 1 μg/ml streptomycin at 37° C. and 5% CO2. Fao cells were maintained in RPMI 1640 medium (Invitrogen) supplemented with 10% fetal bovine serum (FBS), 10 U/ml penicillin and 1 μg/ml streptomycin.\nAdenovirus expressing XBP1s T48A, XBP1s S61A, XBP1s T48A/S61A and MKK6Glu were produced with ViraPower Adenoviral Expression System (Invitrogen) according to manufacturer's instruction. Briefly, pAD-XBP1s T48A, pAD-XBP1s S61A, pAd-XBP1s T48A/S61A and pAd-MKK6Glu were linearized by restriction endonuclease digestion with PacI and transfected to 293A cells by Lipofectamine. The media was changed with fresh media every other day until the cytopathic effect was observed. When cytopathic effect reached to 80%, cells were collected by centrifugation. The pellet was resuspended in PBS and subjected to freezing and thawing cycles at −80° C. and 37° C. for 4 times. The supernatant containing the virus was prepared by centrifugation at 4,000 rpm for 20 min at room temperature. […]\nWestern blot analysis was performed as previously described (Ozcan, L., et al. (2009) Cell metabolism 9:35-51). […] Relative protein levels were quantified by Image J program."}, "XBP1s mRNA": {"test_system": "XBP1s mRNA", "test": "XBP1s mRNA levels and stability (Q-PCR, actinomycin D)", "assay_type": "cell-based, mouse", "method": "Total RNA was extracted from cells or animal tissues using Trizol reagent (Invitrogen) and transcribed into cDNA using cDNA synthesis kit (Bio-Rad). The gene expression analysis was performed with iQ5 Multicolor Real-Time PCR Detection System (Bio-Rad) with SYBR Green Supermix (Bio-Rad). The mRNA level was normalized to 18S as a house keeping gene. The primer sequences used were:\nFor mRNA stability determination, MEF cells were infected with Ad-XBP1s. Sixteen hour after the infection, cells were treated with anisomycin (25 ng/ml) or vehicle (DMSO) for 1 h. Actinomycin D (10 μg/ml, Sigma) was added to the medium. Cells were flash frozen in liquid nitrogen at various time points. mRNA levels were determined via Q-PCR."}, "XBP1s [2]": {"test_system": "XBP1s", "test": "Cytoplasmic and nuclear XBP1s protein in cells", "assay_type": "cell-based, mouse", "settings": "anisomycin 25 ng/ml, two hours", "method": "Cytoplasmic and nuclear protein fractions were extracted from cells by using nuclear protein extraction kit from Active Motif (Carlsbad, Calif.). Cells were maintained in 10 cm tissue culture dishes for nuclear/cytoplasmic extraction. After removal of the media, cells were washed with ice-cold phosphate buffered saline (PBS) containing phosphatase inhibitors. Subsequently, 3 ml of ice-cold PBS with phosphatase inhibitors was added and then cells were scrapped out of the dish. Collected cells were separated from PBS by centrifugation for 5 minutes at 500 rpm and resuspended with 500 μl of 1× hypotonic buffer. After 15-minute incubation in hypotonic buffer on ice, 25 μl of supplied detergent was added and cells were vortexed 10 seconds. Cells were centrifuged for 30 seconds at 14,000×g and supernatant (cytoplasmic fraction) was saved for further analysis. Remaining pellet, which contains nuclei, were resuspended with 50 μl of provided complete lysis buffer with 1 mM dithiothreitol (DTT), vortexed 10 seconds, and incubated for 30 minutes on ice. After 30-second vortexing and 10-minute centrifugation at 14,000×g, the supernatant was collected and analyzed as nuclear fraction."}}, "note": "“Also recorded” adds a separate entry of the source.", "data": [{"compound": "COc1ccc(C[C@H]2NC[C@H](O)[C@H]2OC(C)=O)cc1", "note": "[anisomycin]", "values": [{"measurement": "XBP1s levels", "setting": "XBP1s [1]", "value": "dramatically upregulating their XBP1s levels"}, {"measurement": "enhanced stability of XBP1s mRNA", "setting": "XBP1s mRNA; MK2−/− cells, anisomycin 25 ng/ml", "value": "completely lost"}, {"measurement": "XBP1s mRNA stability", "setting": "XBP1s mRNA; TTP−/− cells, anisomycin 25 ng/ml one hour, actinomycin D 10 μg/ml", "value": "capable of increasing XBP1s mRNA stability"}, {"measurement": "XBP1s mRNA levels", "setting": "XBP1s mRNA; XBP1s expressing control cells, one hour", "value": "dramatic increase in mRNA of XBP1s; also recorded: increased the mRNA levels of XBP1s in a dose dependent manner"}, {"measurement": "cytoplasmic levels of XBP1s vs vehicle-treated cells", "setting": "XBP1s [2]", "value": 28.8, "unit": "times"}, {"measurement": "nuclear levels of XBP1s vs vehicle-treated cells", "setting": "XBP1s [2]", "value": 141.8, "unit": "times"}]}]}
